{
  "source": "patent US7947706B2",
  "about": "“Substituted pyrrolopyridines, compositions containing them, manufacturing process therefor and use thereof” (Sanofi-Aventis Deutschland GmbH, priority 2005, dated 2011)",
  "key": {"Aurora A": {"target": "T1, Aurora A (Homo sapiens, UniProt O14965)", "T1 construct": "Aurora2: whole recombinant protein comprising an N-terminal histidine tail; His (N); made in house; host or cells: E. coli", "T1 sequence (O14965 1-403)": "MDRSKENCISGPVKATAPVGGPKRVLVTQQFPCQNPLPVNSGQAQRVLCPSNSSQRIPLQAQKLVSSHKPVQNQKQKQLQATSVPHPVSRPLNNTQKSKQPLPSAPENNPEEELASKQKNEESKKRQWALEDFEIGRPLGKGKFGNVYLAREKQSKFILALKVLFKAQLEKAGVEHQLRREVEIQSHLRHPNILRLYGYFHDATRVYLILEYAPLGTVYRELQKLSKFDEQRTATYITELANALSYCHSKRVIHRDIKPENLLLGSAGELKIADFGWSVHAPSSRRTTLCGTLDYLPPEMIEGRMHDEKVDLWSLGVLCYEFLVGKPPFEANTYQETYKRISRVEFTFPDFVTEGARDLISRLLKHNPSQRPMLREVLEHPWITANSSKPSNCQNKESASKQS", "assay": "Aurora2 (Aurora-A) enzymatic test, NuMA substrate phosphorylation, radioactivity detection", "type": "biochemical", "conditions": "10 nM Aurora2, 500 nM NuMA, 1 μM ATP, 30 minutes, 37° C.; read-out: IC 50 Aurora A", "description": "(§1) The inhibitory effect of compounds with respect to the kinases Aurora1 and Aurora2 is determined by means of an enzymatic test using radioactivity detection.\n(§2) The kinase activity of Aurora1 and Aurora2 is evaluated via the phosphorylation of the substrate Numa-histidine in the presence of radiolabelled ATP ([^33P]ATP) using 96-well Flashplate plates in which the nickel chelate is bound to the surface of the microplate. The amount of ^33P phosphate incorporated into the NuMA substrate is proportional to the activity of the enzyme Aurora1 or Aurora2.\nAurora2: whole recombinant protein comprising an N-terminal histidine tail, was expressed in E. coli and purified to more than 82%.\n(§3) NuMA (nuclear protein that combines with the mitotic apparatus): 424-amino acid fragment, expressed in E. coli, the N-terminal end of which has been labelled with histidine, and used as substrate for the two Aurora enzymes.\n(§4) The microplates used are 96-well Flash-Plate plates, nickel chelate (Perkin-Elmer, model SMP107).\n(§5) The products to be evaluated are incubated in a reaction volume of 100 μL per well, in the presence of 10 nM of Aurora1 or Aurora2, 500 nM of NuMA substrate in a buffer composed of 50 mM Tris/HCl (pH 7.5), 50 mM NaCl, 5 mM MgCl2 (Aurora-B) or 10 mM MgCl2 (Aurora-A) and 1 mM DTT, at 37° C.\n(§6) 80 μL of enzyme/substrate incubation buffer are distributed in each well, followed by 10 μL of product to be evaluated, at variable concentrations. The reaction is initiated by adding 1 μM final of ATP containing 0.2 μCi of [^33P]ATP (10 μL). After incubating for 30 minutes, the reaction is quenched by simple removal of the reaction buffer and each well is washed twice with 300 μl of Tris/HCl buffer. The radioactivity is then measured in each well using a Packard, Top-Count model scintillation machine.\n(§7) The control enzymatic activity of Aurora is expressed by the number of counts per minute obtained over 30 minutes after subtracting the background noise (reaction mixture containing no enzyme). The evaluation of the various test products is expressed as a percentage of inhibition of the Aurora activity relative to the control."}, "Aurora B": {"target": "T2, Aurora B (Homo sapiens, UniProt Q96GD4)", "T2 construct": "His (N); made in house", "T2 sequence (Q96GD4 whole entry)": "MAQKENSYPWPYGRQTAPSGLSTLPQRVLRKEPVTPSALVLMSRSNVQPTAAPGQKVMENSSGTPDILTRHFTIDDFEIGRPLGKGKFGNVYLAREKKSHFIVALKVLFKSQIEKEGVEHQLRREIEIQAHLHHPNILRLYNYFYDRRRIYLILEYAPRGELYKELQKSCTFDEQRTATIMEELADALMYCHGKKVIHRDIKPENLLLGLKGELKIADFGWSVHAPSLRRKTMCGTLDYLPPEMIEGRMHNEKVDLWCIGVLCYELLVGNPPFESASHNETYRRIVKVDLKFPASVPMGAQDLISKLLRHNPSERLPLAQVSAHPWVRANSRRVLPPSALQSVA", "T2 sequence (Q9NQS7 826-900 partner limits assumed)": "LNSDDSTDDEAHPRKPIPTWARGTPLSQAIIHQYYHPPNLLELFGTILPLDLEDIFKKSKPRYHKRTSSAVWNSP", "assay": "Aurora1 (Aurora-B/INCENP-C3 complex) enzymatic test, NuMA substrate phosphorylation, radioactivity detection", "type": "biochemical", "conditions": "10 nM Aurora1 (Aurora-B/INCENP-C3), 500 nM NuMA, 1 μM ATP, 30 minutes, 37° C.; read-out: IC 50 Aurora B", "description": "as §1, §2\nAurora1: Aurora-B/INCENP-C3 recombinant complex, purified to about 50%, the N-terminal end of Aurora-B of which has been labelled with histidine.\nas §3, §4, §5, §6, §7"}, "TIE2": {"target": "T3, TIE2 (Homo sapiens, UniProt Q02763)", "T3 construct": "amino acids of the intracellular domain 776-1124; made in house; host or cells: baculovirus expression (pFastBacGT)", "T3 sequence (Q02763 776-1124)": "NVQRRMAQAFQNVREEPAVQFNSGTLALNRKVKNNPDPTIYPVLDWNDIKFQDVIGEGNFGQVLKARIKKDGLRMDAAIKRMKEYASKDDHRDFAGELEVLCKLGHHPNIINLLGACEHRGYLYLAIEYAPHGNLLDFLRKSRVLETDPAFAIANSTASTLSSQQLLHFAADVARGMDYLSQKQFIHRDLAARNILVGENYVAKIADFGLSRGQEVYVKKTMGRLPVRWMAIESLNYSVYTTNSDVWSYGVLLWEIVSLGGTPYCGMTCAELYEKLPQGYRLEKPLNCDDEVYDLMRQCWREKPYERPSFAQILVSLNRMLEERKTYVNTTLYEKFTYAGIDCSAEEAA", "assay": "Tie2 phosphorylation of PLC test (GST-Tie2, FlashPlate)", "type": "biochemical", "conditions": "GST-Tie2 intracellular domain 776-1124, GST-PLC substrate, 33P-ATP, one hour at 37° C.; read-out: IC 50 TIE2", "description": "The coding sequence of human Tie2 corresponding to the amino acids of the intracellular domain 776-1124 was generated by PCR using the cDNA isolated from a human placenta as a model. This sequence was introduced into a pFastBacGT baculovirus expression vector in the form of a GST fusion protein.\nThe inhibitory effect of the molecules is determined in a test of phosphorylation of PLC with Tie2 in the presence of GST-Tie2 purified to about 80% homogeneity. The substrate is composed of the SH2-SH3 fragments of PLC expressed in the form of a GST fusion protein.\nThe kinase activity of Tie2 is measured in a MOPS 20 mM pH 7.2 buffer, containing 10 mM MgCl2, 10 mM MnCl2, 1 mM DTT, 10 mM of glycerophosphate. In a 96-well FlashPlate plate maintained on ice, a reaction mixture is deposited, composed of 70 μL of kinase buffer containing 100 ng of enzyme GST-Tie2 per well. Next, 10 μL of the test molecule diluted in DMSO to a maximum concentration of 10% are added. For a given concentration, each measurement is performed four times. The reaction is initiated by adding 20 μl of solution containing 2 μg of GST-PLC, 2 μm of cold ATP and 1 μCi of ^33P[ATP]. After incubation for one hour at 37° C., the reaction is stopped by adding 1 volume (100 μl) of 200 mM EDTA. After removal of the incubation buffer, the wells are washed three times with 300 μL of PBS. The radioactivity is measured on a MicroBeta 1450 Wallac.\nThe inhibition of the Tie2 activity is calculated and expressed as a percentage of inhibition relative to the control activity determined in the absence of compound."}},
  "data": [
    {"smiles": "NC(=O)c1[nH]c2cnccc2c1-c1ccc(NC(=O)Nc2cc(C(F)(F)F)ccc2F)cc1", "note": "[Example 1, 3-{4-[3-(2-Fluoro-5-trifluoromethylphenyl)ureido]phenyl}-1H-pyrrolo[2,3-c]pyridine-2-carboxamide]", "values": [
      {"measurement": "IC50", "setting": "Aurora A", "result": 172, "unit": "nM"},
      {"measurement": "IC50", "setting": "Aurora B", "result": 138, "unit": "nM"},
      {"measurement": "IC50", "setting": "TIE2", "result": 4, "unit": "nM"},
      {"measurement": "melting point", "result": 286, "unit": "°C"}
    ]},
    {"smiles": "COc1ccc(C)cc1NC(=O)Nc1ccc(-c2c(C(N)=O)[nH]c3cnccc23)cc1", "note": "[Example 2, 3-{4-[3-(2-Methoxy-5-methylphenyl)ureido]phenyl}-1H-pyrrolo[2,3-c]pyridine-2-carboxamide]", "values": [
      {"measurement": "IC50", "setting": "Aurora A", "result": 222, "unit": "nM"},
      {"measurement": "IC50", "setting": "Aurora B", "result": 196, "unit": "nM"},
      {"measurement": "IC50", "setting": "TIE2", "result": 21, "unit": "nM"},
      {"measurement": "melting point", "result": 227, "unit": "°C"}
    ]},
    {"smiles": "Cc1ccc(F)c(NC(=O)Nc2ccc(-c3c(C(N)=O)[nH]c4cnccc34)cc2)c1.O=C(O)C(F)(F)F", "note": "[Example 5, 3-{4-[3-(2-Fluoro-5-methylphenyl)ureido]phenyl}-1H-pyrrolo[2,3-c]pyridine-2-carboxamide trifluoroacetate]", "values": [
      {"measurement": "IC50", "setting": "Aurora A", "result": 131, "unit": "nM"},
      {"measurement": "IC50", "setting": "Aurora B", "result": 67, "unit": "nM"},
      {"measurement": "IC50", "setting": "TIE2", "result": 47, "unit": "nM"},
      {"measurement": "melting point", "result": 222, "unit": "°C"}
    ]},
    {"smiles": "NC(=O)c1[nH]c2ncccc2c1-c1ccc(NC(=O)Nc2cc(C(F)(F)F)ccc2F)cc1", "note": "[Example 7, 3-{4-[3-(2-Fluoro-5-trifluoromethylphenyl)ureido]phenyl}-1H-pyrrolo[2,3-b]pyridine-2-carboxamide]", "values": [
      {"measurement": "IC50", "setting": "Aurora A", "result": 553, "unit": "nM"},
      {"measurement": "IC50", "setting": "Aurora B", "result": 133, "unit": "nM"},
      {"measurement": "IC50", "setting": "TIE2", "result": 9, "unit": "nM"},
      {"measurement": "melting point", "result": 232, "unit": "°C"}
    ]}
  ]
}
